Data taken from the Kinase Knowledgebase extract (Sharma et al. 2016).

The compounds below were run against MAPK14 (human) (UniProt Q16539) (assay: Inhibition of MAPK14 Kinase Activity).
MAPK14 (human), sequence (Q16539 whole entry, looked up): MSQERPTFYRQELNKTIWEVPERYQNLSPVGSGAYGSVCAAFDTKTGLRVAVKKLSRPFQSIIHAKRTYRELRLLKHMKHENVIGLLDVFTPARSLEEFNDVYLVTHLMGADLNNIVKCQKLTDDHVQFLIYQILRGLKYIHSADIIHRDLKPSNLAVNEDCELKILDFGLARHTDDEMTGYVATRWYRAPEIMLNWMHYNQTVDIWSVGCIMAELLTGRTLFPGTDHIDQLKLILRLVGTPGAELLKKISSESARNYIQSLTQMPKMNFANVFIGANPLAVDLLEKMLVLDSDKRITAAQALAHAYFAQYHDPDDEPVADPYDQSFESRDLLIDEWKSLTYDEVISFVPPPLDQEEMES

| SMILES | IC50 [nM] |
| --- | --- |
| CC(C)NC(=O)c1csc(-c2oc(CN3CCN(C(=O)C4CCCCC4)CC3)nc2-c2ccc(F)cc2)n1 | ≤ 1000 |
| Cc1nc(-c2ccc(F)cc2)c(-c2nc(C(=O)NCCc3ccc(S(N)(=O)=O)cc3)cs2)s1 | ≤ 1000 |
| CC(C)NC(=O)c1csc(-c2c(-c3ccc(F)cc3)n[nH]c2C2CCN(C(=O)C3CN(C(=O)OC(C)(C)C)CCN3)CC2)n1 (stereo not drawn) | ≤ 1000 |
| Cc1nc(-c2ccc(F)cc2)c(-c2nc(C(=O)NCc3ccncc3)cs2)s1 | ≤ 1000 |
| CCOC(=O)CC(C)NC(=O)c1csc(-c2sc(C)nc2-c2ccc(F)cc2)n1 (stereo not drawn) | ≤ 1000 |
| Cc1cc(C)c(C(=O)N2CCN(Cc3nc(-c4ccc(F)cc4)c(-c4nc(C(=O)NC(C)C)cs4)o3)CC2)c(C)c1 | ≤ 1000 |
| COc1ccc(C(=O)N2CCN(Cc3nc(-c4ccc(F)cc4)c(-c4nc(C(=O)NC(C)C)cs4)o3)CC2)c(OC)c1 | ≤ 1000 |
| CC(C)NC(=O)c1csc(-c2oc(CNC(=O)c3ccccc3[N+](=O)[O-])nc2-c2ccc(F)cc2)n1 | ≤ 1000 |
| CC(=O)N1CCN(Cc2nc(-c3ccc(F)cc3)c(-c3nc(C(=O)NC(C)C)cs3)o2)CC1 | ≤ 1000 |
| Cc1nc(-c2ccc(F)cc2)c(-c2nc(C(=O)NC3CCC(C)CC3)cs2)s1 (stereo not drawn) | ≤ 1000 |
| CC(C)NC(=O)c1csc(-c2oc(CN3CCN(C(=O)c4ccccc4-c4ccccc4)CC3)nc2-c2ccc(F)cc2)n1 | ≤ 1000 |
| Cc1nc(-c2ccc(F)cc2)c(-c2nc(C(=O)Nc3cnc4ccccc4c3)cs2)s1 | ≤ 1000 |
| CC1=NN(c2ccc(C(=O)NCc3nc(-c4ccc(F)cc4)c(-c4nc(C(=O)NC(C)C)cs4)o3)cc2)C(=O)C1 | ≤ 1000 |
| C#CCNC(=O)c1csc(-c2c(-c3ccc(F)cc3)ncn2C)n1 | ≤ 1000 |
| COc1cccc(O)c1C(=O)N1CCN(Cc2nc(-c3ccc(F)cc3)c(-c3nc(C(=O)NC(C)C)cs3)o2)CC1 | ≤ 1000 |
| COCCNC(=O)c1csc(-c2c(-c3ccc(F)cc3)n[nH]c2C2CCNCC2)n1 | ≤ 1000 |
| CCOC(=O)CC1C(=O)NCCN1C(=O)c1csc(-c2sc(C)nc2-c2ccc(F)cc2)n1 (stereo not drawn) | ≤ 1000 |
| CC(C)CC(NC(=O)OC(C)(C)C)C(=O)N1CCC(c2[nH]nc(-c3ccc(F)cc3)c2-c2nc(C(=O)NC(C)C)cs2)CC1 (stereo not drawn) | ≤ 1000 |
| Cc1nc(-c2ccc(F)cc2)c(-c2nc(C(=O)NCc3cccnc3)cs2)s1 | ≤ 1000 |
| Cc1ccc(F)cc1C(=O)NCc1nc(-c2ccc(F)cc2)c(-c2nc(C(=O)NC(C)C)cs2)o1 | ≤ 1000 |
| CC(C)NC(=O)c1csc(-c2oc(CNC(=O)c3cccc(O)c3)nc2-c2ccc(F)cc2)n1 | ≤ 1000 |
| COc1ccccc1C=CC(=O)N1CCN(Cc2nc(-c3ccc(F)cc3)c(-c3nc(C(=O)NC(C)C)cs3)o2)CC1 | ≤ 1000 |

| SMILES | IC50 [nM] |
| --- | --- |
| CC(C)NC(=O)c1csc(-c2oc(CNC(=O)Cc3ccc(O)c(F)c3)nc2-c2ccc(F)cc2)n1 | ≤ 1000 |
| CC(C)NC(=O)c1csc(-c2c(-c3ccc(F)cc3)n[nH]c2C2CCN(C(=O)c3ccccn3)CC2)n1 | ≤ 1000 |
| CCOC(=O)CC(=O)N1CCN(Cc2nc(-c3ccc(F)cc3)c(-c3nc(C(=O)NC(C)C)cs3)o2)CC1 | ≤ 1000 |
| CC(C)NC(=O)c1csc(-c2oc(CNC(=O)c3cc(O)ccc3[N+](=O)[O-])nc2-c2ccc(F)cc2)n1 | ≤ 1000 |
| CC(C)NC(=O)c1csc(-c2oc(CNC(=O)c3ccccc3C(=O)c3ccc(O)cc3)nc2-c2ccc(F)cc2)n1 | ≤ 1000 |
| CC(C)NC(=O)c1csc(-c2oc(CNCc3ccccc3OC(F)(F)F)nc2-c2ccc(F)cc2)n1 | ≤ 1000 |
| Cc1nc(-c2ccc(F)cc2)c(-c2nc(C(=O)NCCc3ccc(Cl)cc3)cs2)s1 | ≤ 1000 |
| Cc1nc(-c2ccc(F)cc2)c(-c2nc(C(=O)NCC3CCCCC3)cs2)s1 | ≤ 1000 |
| CC(C)NC(=O)c1csc(-c2oc(CNC(=O)c3ccc(F)cc3Cl)nc2-c2ccc(F)cc2)n1 | ≤ 1000 |
| CC(C)NC(=O)c1csc(-c2oc(CNC(=O)c3ccc([N+](=O)[O-])cc3Cl)nc2-c2ccc(F)cc2)n1 | ≤ 1000 |
| Cc1nc(-c2ccc(F)cc2)c(-c2nc(C(=O)Nc3ccc4c(c3)OCCO4)cs2)s1 | ≤ 1000 |
| CC(C)NC(=O)c1csc(-c2[nH]c(N)nc2-c2ccc(F)cc2)n1 | ≤ 1000 |
| CC(C)NC(=O)c1csc(-c2oc(CN3CCN(C(=O)Cc4ccc(O)c(F)c4)CC3)nc2-c2ccc(F)cc2)n1 | ≤ 1000 |
| COc1ccccc1NC(=O)c1csc(-c2sc(C)nc2-c2ccc(F)cc2)n1 | ≤ 1000 |
| Cc1[nH]nc(-c2ccc(F)cc2)c1-c1nc(C(=O)NCc2ccccn2)cs1 | ≤ 1000 |
| CCN(Cc1onc(-c2ccc(F)cc2)c1-c1nc(C(=O)NC(C)C)cs1)C(Cc1ccccc1)c1ccco1 (stereo not drawn) | ≤ 1000 |
| CC(C)NC(=O)c1csc(-c2[nH]c(CN3CCOCC3)nc2-c2ccc(F)cc2)n1 | ≤ 1000 |
| Cc1nc(-c2ccc(F)cc2)c(-c2nc(C(=O)NCc3ccc(C)c(C)c3)cs2)s1 | ≤ 1000 |
| Cc1cccc(C(=O)N2CCN(Cc3nc(-c4ccc(F)cc4)c(-c4nc(C(=O)NC(C)C)cs4)o3)CC2)c1O | ≤ 1000 |
| COc1ccc(C=CC(=O)NCc2nc(-c3ccc(F)cc3)c(-c3nc(C(=O)NC(C)C)cs3)o2)cc1O | ≤ 1000 |
| CC(C)NC(=O)c1csc(-c2oc(CNC(=O)C(C)O)nc2-c2ccc(F)cc2)n1 (stereo not drawn) | ≤ 1000 |
